Consider 22 molecules from patent US12378224B2 (Dong-A Socio Holdings Co., Ltd., priority 2016, dated 2025).

Sequence of human MER (528-end) (Q12866 528-999 limits assumed): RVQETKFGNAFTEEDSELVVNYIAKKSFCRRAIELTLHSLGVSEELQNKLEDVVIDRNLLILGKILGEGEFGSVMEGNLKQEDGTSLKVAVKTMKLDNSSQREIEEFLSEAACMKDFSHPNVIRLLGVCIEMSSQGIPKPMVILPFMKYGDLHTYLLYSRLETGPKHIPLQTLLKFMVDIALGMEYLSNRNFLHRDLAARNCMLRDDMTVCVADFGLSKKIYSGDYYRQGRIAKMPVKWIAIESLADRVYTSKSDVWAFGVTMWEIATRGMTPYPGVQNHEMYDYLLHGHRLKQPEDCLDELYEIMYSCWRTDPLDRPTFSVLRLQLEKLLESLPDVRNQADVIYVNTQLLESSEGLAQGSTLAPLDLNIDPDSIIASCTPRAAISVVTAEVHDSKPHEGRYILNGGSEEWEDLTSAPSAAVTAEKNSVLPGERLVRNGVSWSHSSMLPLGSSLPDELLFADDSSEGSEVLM

This test deals with human MER (528-end) (Homo sapiens (Human), UniProt Q12866). The test is described as follows: HTRF Kinase Activity Biochemical Assay (KinEASE-TK). The following applies: 10 uM ATP. The method, boiled down:
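Recombinant human MER (528-end) phosphorylated biotin-TK peptide substrate, 1 h at room temperature. Reaction stopped with detection buffer containing 0.375 nM Eu3+-cryptate anti-TK antibody and 0.062 uM streptavidin-XL665, 1 h further. Activity taken as HTRF ratio 665/620 nm ×10,000, 340 nm excitation.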
For orientation: IC50 means the concentration at which inhibition is half-maximal. `Cn1cc(-c2cnc(N)c(C(=O)N[C@@H]3CCN(C(=O)Oc4cccc(Oc5ccccc5)c4)C3)c2)cn1` [Example 110, 3-phenoxyphenyl (R)-3-(2-amino-5-(1-methyl-1H-pyrazol-4-yl)nicotinamido)pyrrolidine-1-carboxylate] returned an IC50 of 100 to 1000 nM.

For `Cn1cc(-c2cnc(N)c(C(=O)N[C@@H]3CCN(Cc4ccccc4)C3)c2)cn1` [Example 205, (R)-2-amino-N-(1-benzylpyrrolidin-3-yl)-5-(1-methyl-1H-pyrazol-4-yl)nicotinamide], the IC50 was above 1000 nM. The same measure for `Cn1cc(-c2cnc(N)c(C(=O)N[C@@H]3CCN(C(=O)OC4CCC(c5ccccc5)CC4)C3)c2)cn1` (stereo partly drawn) [Example 125, 4-phenylcyclohexyl (R)-3-(2-amino-5-(1-methyl-1H-pyrazol-4-yl)nicotinamido)pyrrolidine-1-carboxylate]: above 1000 nM; for `Cc1cc(OC(=O)N2CC[C@@H](NC(=O)c3cc(-c4cnn(C)c4)cnc3N)C2)cc(C(C)C)c1` [Example 57, 3-isopropyl-5-methylphenyl (R)-3-(2-amino-5-(1-methyl-1H-pyrazol-4-yl)nicotinamido)pyrrolidine-1-carboxylate]: above 1000 nM; for `CC(c1ccc(Cl)c(Cl)c1)N1CC[C@@H](NC(=O)c2cc(-c3cnn(C4CCNCC4)c3)cnc2N)C1` (stereo partly drawn) [Example 150, 2-amino-N-((3R)-1-(1-(3,4-dichlorophenyl)ethyl)pyrrolidin-3-yl)-5-(1-(piperidin-4-yl)-1H-pyrazol-4-yl)nicotinamide]: above 1000 nM.

`Cn1cc(-c2cnc(N)c(C(=O)N[C@@H]3CCN(Cc4ccc(Cl)c(Cl)c4)C3)c2)cn1` [Example 213, (R)-2-amino-N-(1-(3,4-dichlorobenzyl)pyrrolidin-3-yl)-5-(1-methyl-1H-pyrazol-4-yl)nicotinamide] displayed an IC50 above 1000 nM. The same measure for `COc1cccc(CN2CC[C@@H](NC(=O)c3cc(-c4cnn(C5CCNCC5)c4)cnc3N)C2)c1` [Example 154, (R)-2-amino-N-(1-(3-methoxybenzyl)pyrrolidin-3-yl)-5-(1-(piperidin-4-yl)-1H-pyrazol-4-yl)nicotinamide]: 100 to 1000 nM. Under `CN1CCN(Cc2ccc(/C=C/C(=O)N3CC[C@@H](NC(=O)c4cc(-c5cnn(C)c5)cnc4N)C3)cc2)CC1` [Example 429, (R,E)-2-amino-5-(1-methyl-1H-pyrazol-4-yl)-N-(1-(3-(4-((4-methylpiperazin-1-yl)methyl)phenyl)acryloyl)pyrrolidin-3-yl)nicotinamide] stands 100 to 1000 nM; under `Nc1ncc(Br)cc1C(=O)N[C@@H]1CCN(C(=O)c2ccc(-c3ccc(F)cc3Cl)cc2)C1` [Example 580, (R)-2-amino-5-bromo-N-(1-(2′-chloro-4′-fluoro-[1,1′-biphenyl]-4-carbonyl)pyrrolidin-3-yl)nicotinamide], 100 to 1000 nM; under `COCCn1cc(-c2cnc(N)c(C(=O)N[C@@H]3CCN(C(=O)c4ccc(-c5ccccc5Cl)cc4)C3)c2)cn1` [Example 573, (R)-2-amino-N-(1-(2′-chloro-[1,1′-biphenyl]-4-carbonyl)pyrrolidin-3-yl)-5-(1-(2-methoxyethyl)-1H-pyrazol-4-yl)nicotinamide], 10 to 100 nM.

`CN1CCC(n2cc(-c3cnc(N)c(C(=O)N[C@@H]4CCN(C(=O)c5ccc(-c6ccccc6)cc5)C4)c3)cn2)CC1` [Example 563, (R)—N-(1-([1,1′-biphenyl]-4-carbonyl)pyrrolidin-3-yl)-2-amino-5-(1-(1-methylpiperidin-4-yl)-1H-pyrazol-4-yl)nicotinamide] displayed an IC50 of 10 to 100 nM.

As for `CC(C)(C)n1cc(-c2cnc(N)c(C(=O)N[C@@H]3CCN(C(=O)c4ccc(-c5ccccc5Cl)cc4)C3)c2)cn1` [Example 577, (R)-2-amino-5-(1-(tert-butyl)-1H-pyrazol-4-yl)-N-(1-(2′-chloro-[1,1′-biphenyl]-4-carbonyl)pyrrolidin-3-yl)nicotinamide], the IC50 was in the range of 10 to 100 nM. Under `Cn1cc(-c2cnc(N)c(C(=O)N[C@@H]3CCN(CCc4ccccc4)C3)c2)cn1` [Example 230, (R)-2-amino-5-(1-methyl-1H-pyrazol-4-yl)-N-(1-phenethylpyrrolidin-3-yl)nicotinamide] stands above 1000 nM. The same measure for `Cn1cc(-c2cnc(N)c(C(=O)N[C@@H]3CCN(C(=O)Oc4cccc(C#N)c4)C3)c2)cn1` [Example 87, 3-cyanophenyl (R)-3-(2-amino-5-(1-methyl-1H-pyrazol-4-yl)nicotinamido)pyrrolidine-1-carboxylate]: above 1000 nM; for `Cn1cc(-c2cnc(N)c(C(=O)N[C@@H]3CCN(C(=O)c4ccc(-c5ccc(C#N)cc5)cc4)C3)c2)cn1` [Example 726, (R)-2-amino-N-(1-(4′-cyano-[1,1′-biphenyl]-4-carbonyl)pyrrolidin-3-yl)-5-(1-methyl-1H-pyrazol-4-yl)nicotinamide]: 100 to 1000 nM; for `CN1CCN(Cc2ccc(-c3ccc4cc(OC(=O)N5CC[C@@H](NC(=O)c6cc(-c7cnn(C)c7)cnc6N)C5)ccc4c3)cc2)CC1` [Example 293, 6-(4-((4-methylpiperazin-1-yl)methyl)phenyl)naphthalen-2-yl (R)-3-(2-amino-5-(1-methyl-1H-pyrazol-4-yl)nicotinamido)pyrrolidine-1-carboxylate]: 100 to 1000 nM. The same measure for `CN1CCN(Cc2ccc(-c3cccc(NC(=O)N4CC[C@@H](NC(=O)c5cc(-c6cnn(C)c6)cnc5N)C4)c3)cc2)CC1` [Example 268, (R)-2-amino-5-(1-methyl-1H-pyrazol-4-yl)-N-(1-((4′-((4-methylpiperazin-1-yl)methyl)-[1,1′-biphenyl]-3-yl)carbamoyl)pyrrolidin-3-yl)nicotinamide]: 10 to 100 nM; for `Cn1cc(-c2cnc(N)c(C(=O)N[C@@H]3CCN(C(=O)Oc4ccc(Oc5ccc(N)cc5)cc4)C3)c2)cn1` [Example 112, 4-(4-aminophenoxy)phenyl (R)-3-(2-amino-5-(1-methyl-1H-pyrazol-4-yl)nicotinamido)pyrrolidine-1-carboxylate]: 100 to 1000 nM. In turn, `CN1CCN(c2ccc(-c3cnc(N)c(C(=O)N[C@@H]4CCN(C(=O)c5ccc(-c6ccccc6)cc5)C4)c3)cc2)CC1` [Example 556, (R)—N-(1-([1,1′-biphenyl]-4-carbonyl)pyrrolidin-3-yl)-2-amino-5-(4-(4-methylpiperazin-1-yl)phenyl)nicotinamide] registered an IC50 of 10 to 100 nM. Under `Cn1cc(-c2cnc(N)c(C(=O)N[C@@H]3CCN(Cc4ccccc4-c4ccccc4)C3)c2)cn1` [Example 225, (R)—N-(1-([1,1′-biphenyl]-2-ylmethyl)pyrrolidin-3-yl)-2-amino-5-(1-methyl-1H-pyrazol-4-yl)nicotinamide] stands 100 to 1000 nM; under `Cc1c(C(=O)N2CC[C@@H](NC(=O)c3cc(-c4cnn(C)c4)cnc3N)C2)oc2ccccc12` [Example 402, (R)-2-amino-5-(1-methyl-1H-pyrazol-4-yl)-N-(1-(3-methylbenzofuran-2-carbonyl)pyrrolidin-3-yl)nicotinamide], above 1000 nM. Regarding `COC(=O)[C@H]1C[C@@H](NC(=O)c2cc(-c3cnn(C)c3)cnc2N)CN1C(=O)c1cccc(-c2ccccc2)c1` [Example 684, Methyl (2R,4R)-1-([1,1′-biphenyl]-3-carbonyl)-4-(2-amino-5-(1-methyl-1H-pyrazol-4-yl)nicotinamido)pyrrolidine-2-carboxylate], the IC50 is above 1000 nM.
